Results reported in patent US6489297B1, “Vasoactive intestinal peptide analogs” (Dabur Research Foundation, priority 2000, dated 2002).
Where a SMILES comes first, the peptide text is derived from it. [ ]: non-standard residue; d: D form. dPhe(4-Cl) = N[C@H](Cc1ccc(Cl)cc1)C(=O)O; Dpg = CCCC(N)(CCC)C(=O)O; Ac5c = NC1(C(=O)O)CCCC1; Deg = CCC(N)(CC)C(=O)O; Aib = CC(C)(N)C(=O)O

Assays:
Type in all cases: cell-based, human
Conditions in all cases: 72 hours
[1] = test system: HuTu80 (duodenum); assay: MTT cytotoxicity assay, HuTu80 cells
Description: (§1) The cytotoxic activity of synthesized peptides was tested on […] human tumor cell lines namely PA-1 (ovary), SW620 (colon) HuTu80 (duodenum), L132 (lung), U87MG (glioblastoma), KB (oral), MIAPaCa2(pancreas), A549(non small cell lung) and HT-29(colon). The tumor cells were collected at exponential growth phase and resuspended in medium (1.5×10^6 cells/ml in RPMI 1640 containing 10% FBS). 150 μl of medium was added to the wells of a 96-well tissue culture plate (Nunc, Denmark) followed by 30 μl of cell suspension. The plate was left in incubator (37° C., 5% CO2) overnight. 20 μl of the peptide (100 pM to 1 uM concentration) was added to marked wells of the 96-well plate. Each concentration was plated in triplicates. 20 μl of medium alone was added to control wells while wells without cells served as blanks. A total volume of 200 μl was ensured in each well and plate was left in incubator (37° C., 5% CO2). After 72 hours of incubation an MTT assay was performed and percentage cytotoxicity was calculated with respect to control cells. Following Tables show the maximum cytotoxicity achieved on various cell lines.

[2] = test system: PA-1 (ovary); assay: MTT cytotoxicity assay, PA-1 cells
Description: as §1

[3] = test system: U87MG (glioblastoma); assay: MTT cytotoxicity assay, U87MG cells
Description: as §1

[4] = test system: L132 (lung); assay: MTT cytotoxicity assay, L132 cells
Description: as §1

[5] = test system: SW620 (colon); assay: MTT cytotoxicity assay, SW620 cells
Description: as §1

[6] = test system: KB (oral); assay: MTT cytotoxicity assay, KB cells
Description: as §1

For CC[C@H](C)[C@H](NC(=O)[C@H](CO)NC(=O)[C@H](CC(N)=O)NC(=O)[C@H](CC(C)C)NC(=O)[C@H](Cc1ccc(O)cc1)NC(=O)[C@H](CCCCN)NC(=O)[C@H](CCCCN)NC(=O)[C@@H](NC(=O)[C@H](C)NC(=O)[C@H](CC(C)C)NC(=O)[C@H](CCC(N)=O)NC(=O)[C@H](CCCCN)NC(=O)[C@H](CCCNC(=N)N)NC(=O)[C@H](CC(C)C)NC(=O)[C@H](CCCNC(=N)N)NC(=O)[C@@H](NC(=O)[C@H](Cc1ccc(O)cc1)NC(=O)[C@H](CC(N)=O)NC(=O)[C@H](CC(=O)O)NC(=O)[C@@H](NC(=O)[C@@H](Cc1ccc(Cl)cc1)NC(=O)[C@@H](NC(=O)C1(NC(=O)[C@H](CC(=O)O)NC(=O)[C@H](CO)NC(=O)[C@@H](N)Cc2c[nH]cn2)CCCC1)C(C)C)[C@@H](C)O)[C@@H](C)O)C(C)C)C(=O)N[C@@H](CC(C)C)C(=O)N[C@@H](CC(N)=O)C(N)=O [SEQ ID NO: 4] (H-HSD[Ac5c]V[dPhe(4-Cl)]TDNYTRLRKQLAVKKYLNSILN-NH2), the Percentage cytotoxicity ([1]; HuTu80, 100 pM) was 11 ± 8.0%, the Percentage cytotoxicity ([1]; HuTu80, 1 nM) was 30 ± 7.0% and the Percentage cytotoxicity ([1]; HuTu80, 10 nM) was 27 ± 5.0%. For the same compound, the Percentage cytotoxicity ([1]; HuTu80, 100 nM) was 27 ± 7.9%, the Percentage cytotoxicity ([1]; HuTu80, 1 μM) was 15.5 ± 6.5% and the Percentage cytotoxicity ([2]; PA1, 100 pM) was 16.1 ± 0.0%. For the same compound, the Percentage cytotoxicity ([2]; PA1, 1 nM) was 30 ± 6.0%, the Percentage cytotoxicity ([2]; PA1, 10 nM) was 23 ± 3.5% and the Percentage cytotoxicity ([2]; PA1, 100 nM) was 22.3 ± 4.5%. It also gave a Percentage cytotoxicity ([2]; PA1, 1 μM) of 21 ± 5.5%, a Percentage cytotoxicity ([3]; 100 pM) of 10 ± 4.6% and a Percentage cytotoxicity ([3]; 1 nM) of 15 ± 7.8%. For the same compound, the Percentage cytotoxicity ([3]; 10 nM) was 29 ± 6.7%, the Percentage cytotoxicity ([3]; 100 nM) was 28 ± 7.7% and the Percentage cytotoxicity ([3]; 1 μM) was 27 ± 5.5%. The Percentage cytotoxicity ([4]; L132, 100 pM) was 11 ± 8.0%, the Percentage cytotoxicity ([4]; L132, 1 nM) was 27 ± 4.5% and the Percentage cytotoxicity ([4]; L132, 10 nM) was 30 ± 5.5%. For the same compound, the Percentage cytotoxicity ([4]; L132, 100 nM) was 28 ± 5.5%, the Percentage cytotoxicity ([4]; L132, 1 μM) was 13 ± 4.5% and the Percentage cytotoxicity ([5]; SW620, 100 pM) was 16.9 ± 5.5%. It also gave a Percentage cytotoxicity ([5]; SW620, 1 nM) of 31 ± 6.5%, a Percentage cytotoxicity ([5]; SW620, 10 nM) of 28.5 ± 4.5% and a Percentage cytotoxicity ([5]; SW620, 100 nM) of 23 ± 6.7%. For the same compound, the Percentage cytotoxicity ([5]; SW620, 1 μM) was 15 ± 4.5%, the Percentage cytotoxicity ([6]; 100 pM) was 13 ± 8.0% and the Percentage cytotoxicity ([6]; 1 nM) was 30 ± 7.8%. It also gave a Percentage cytotoxicity ([6]; 10 nM) of 27 ± 7.8%, a Percentage cytotoxicity ([6]; 100 nM) of 26 ± 5.6% and a Percentage cytotoxicity ([6]; 1 μM) of 27 ± 4.3%.
Compound CC[C@H](C)[C@H](NC(=O)[C@H](CO)NC(=O)[C@H](CC(N)=O)NC(=O)[C@H](CC(C)C)NC(=O)[C@H](Cc1ccc(O)cc1)NC(=O)[C@H](CCCCN)NC(=O)[C@H](CCCCN)NC(=O)[C@@H](NC(=O)[C@H](C)NC(=O)[C@H](CC(C)C)NC(=O)[C@H](CCC(N)=O)NC(=O)[C@H](CCCCN)NC(=O)[C@H](CCCNC(=N)N)NC(=O)[C@H](CC(C)C)NC(=O)[C@H](CCCNC(=N)N)NC(=O)[C@@H](NC(=O)[C@H](Cc1ccc(O)cc1)NC(=O)[C@H](CC(N)=O)NC(=O)[C@H](CC(=O)O)NC(=O)[C@@H](NC(=O)[C@@H](Cc1ccc(Cl)cc1)NC(=O)[C@@H](NC(=O)C(CC)(CC)NC(=O)[C@H](CC(=O)O)NC(=O)[C@H](CO)NC(=O)[C@@H](N)Cc1c[nH]cn1)C(C)C)[C@@H](C)O)[C@@H](C)O)C(C)C)C(=O)N[C@@H](CC(C)C)C(=O)N[C@@H](CC(N)=O)C(N)=O [SEQ ID NO: 3] (H-HSD[Deg]V[dPhe(4-Cl)]TDNYTRLRKQLAVKKYLNSILN-NH2) has a Percentage cytotoxicity ([1]; HuTu80, 100 pM) of 14 ± 7.8%, a Percentage cytotoxicity ([1]; HuTu80, 1 nM) of 29 ± 6.2% and a Percentage cytotoxicity ([1]; HuTu80, 10 nM) of 28 ± 4.7%. The Percentage cytotoxicity ([1]; HuTu80, 100 nM) was 24 ± 7.8%, the Percentage cytotoxicity ([1]; HuTu80, 1 μM) was 14.5 ± 7.1% and the Percentage cytotoxicity ([2]; PA1, 100 pM) was 15 ± 4.5%. It also gave a Percentage cytotoxicity ([2]; PA1, 1 nM) of 29 ± 5.8%, a Percentage cytotoxicity ([2]; PA1, 10 nM) of 22 ± 4.5% and a Percentage cytotoxicity ([2]; PA1, 100 nM) of 23.5 ± 5.2%. The Percentage cytotoxicity ([2]; PA1, 1 μM) was 22.1 ± 4.5%, the Percentage cytotoxicity ([3]; 100 pM) was 11 ± 7.8% and the Percentage cytotoxicity ([3]; 1 nM) was 16 ± 6.6%. For the same compound, the Percentage cytotoxicity ([3]; 10 nM) was 28 ± 7.5%, the Percentage cytotoxicity ([3]; 100 nM) was 26 ± 6.7% and the Percentage cytotoxicity ([3]; 1 μM) was 25 ± 4.6%. For the same compound, the Percentage cytotoxicity ([4]; L132, 100 pM) was 14 ± 5.6%, the Percentage cytotoxicity ([4]; L132, 1 nM) was 23 ± 3.5% and the Percentage cytotoxicity ([4]; L132, 10 nM) was 29 ± 6.7%. For the same compound, the Percentage cytotoxicity ([4]; L132, 100 nM) was 26 ± 6.5%, the Percentage cytotoxicity ([4]; L132, 1 μM) was 14 ± 6.5% and the Percentage cytotoxicity ([5]; SW620, 100 pM) was 15.9 ± 6.6%. The Percentage cytotoxicity ([5]; SW620, 1 nM) was 29 ± 5.6%, the Percentage cytotoxicity ([5]; SW620, 10 nM) was 27 ± 5.5% and the Percentage cytotoxicity ([5]; SW620, 100 nM) was 22 ± 7.3%. It also gave a Percentage cytotoxicity ([5]; SW620, 1 μM) of 16 ± 3.4%, a Percentage cytotoxicity ([6]; 100 pM) of 13 ± 8.5% and a Percentage cytotoxicity ([6]; 1 nM) of 24.5 ± 9.5%. It also gave a Percentage cytotoxicity ([6]; 10 nM) of 22 ± 8.2%, a Percentage cytotoxicity ([6]; 100 nM) of 18 ± 8.5% and a Percentage cytotoxicity ([6]; 1 μM) of 14 ± 3.4%.
CCCC(CCC)(NC(=O)[C@H](CCC(N)=O)NC(=O)[C@H](CCCCN)NC(=O)[C@H](CCCNC(=N)N)NC(=O)[C@H](CC(C)C)NC(=O)[C@H](CCCNC(=N)N)NC(=O)[C@@H](NC(=O)[C@H](Cc1ccc(O)cc1)NC(=O)[C@H](CC(N)=O)NC(=O)[C@H](CC(=O)O)NC(=O)[C@@H](NC(=O)[C@H](Cc1ccccc1)NC(=O)[C@@H](NC(=O)C(C)(C)NC(=O)[C@H](CC(=O)O)NC(=O)[C@H](CO)NC(=O)[C@@H](N)Cc1c[nH]cn1)C(C)C)[C@@H](C)O)[C@@H](C)O)C(=O)N[C@@H](C)C(=O)N[C@H](C(=O)N[C@@H](CCCCN)C(=O)N[C@@H](CCCCN)C(=O)N[C@@H](Cc1ccc(O)cc1)C(=O)N[C@@H](CC(C)C)C(=O)N[C@@H](CC(N)=O)C(=O)N[C@@H](CO)C(=O)N[C@H](C(=O)N[C@@H](CC(C)C)C(=O)N[C@@H](CC(N)=O)C(N)=O)[C@@H](C)CC)C(C)C [SEQ ID NO: 9, His-Ser-Asp-Aib-Val-Phe-Thr-Asp-Asn-Tyr-Thr-Arg-Leu-Arg-Lys-Gln-Dpg-Ala-Val-Lys-Lys-Tyr-Leu-Asn-Ser-Ile-Leu-Asn-NH2] (H-HSD[Aib]VFTDNYTRLRKQ[Dpg]AVKKYLNSILN-NH2) showed a Percentage cytotoxicity ([1]; HuTu80, 100 pM) of 14.6 ± 2.7%, a Percentage cytotoxicity ([1]; HuTu80, 1 nM) of 28.5 ± 3.2% and a Percentage cytotoxicity ([1]; HuTu80, 10 nM) of 26 ± 5.5%. For the same compound, the Percentage cytotoxicity ([1]; HuTu80, 100 nM) was 23 ± 6.0%, the Percentage cytotoxicity ([1]; HuTu80, 1 μM) was 14.6 ± 5.1% and the Percentage cytotoxicity ([2]; PA1, 100 pM) was 15.5 ± 3.3%. The Percentage cytotoxicity ([2]; PA1, 1 nM) was 27.8 ± 4.3%, the Percentage cytotoxicity ([2]; PA1, 10 nM) was 25.6 ± 4.5% and the Percentage cytotoxicity ([2]; PA1, 100 nM) was 17.4 ± 3.2%. The Percentage cytotoxicity ([2]; PA1, 1 μM) was 15.1 ± 2.3%, the Percentage cytotoxicity ([3]; 100 pM) was 11.5 ± 5.0% and the Percentage cytotoxicity ([3]; 1 nM) was 13.7 ± 3.6%. The Percentage cytotoxicity ([3]; 10 nM) was 26.7 ± 3.5%, the Percentage cytotoxicity ([3]; 100 nM) was 18.9 ± 6.5% and the Percentage cytotoxicity ([3]; 1 μM) was 12.5 ± 6.5%. The Percentage cytotoxicity ([4]; L132, 100 pM) was 17 ± 2.3%, the Percentage cytotoxicity ([4]; L132, 1 nM) was 20 ± 0.0% and the Percentage cytotoxicity ([4]; L132, 10 nM) was 18.9 ± 6.0%. It also gave a Percentage cytotoxicity ([4]; L132, 100 nM) of 17.5 ± 5.5%, a Percentage cytotoxicity ([4]; L132, 1 μM) of 13.6 ± 5.6% and a Percentage cytotoxicity ([5]; SW620, 100 pM) of 15.9 ± 4.5%. The Percentage cytotoxicity ([5]; SW620, 1 nM) was 28 ± 5.0%, the Percentage cytotoxicity ([5]; SW620, 10 nM) was 27 ± 3.4% and the Percentage cytotoxicity ([5]; SW620, 100 nM) was 21 ± 3.6%. It also gave a Percentage cytotoxicity ([5]; SW620, 1 μM) of 16.7 ± 4.1%, a Percentage cytotoxicity ([6]; 100 pM) of 13 ± 5.0% and a Percentage cytotoxicity ([6]; 1 nM) of 21.5 ± 4.5%. The Percentage cytotoxicity ([6]; 10 nM) was 16.7 ± 3.2%, the Percentage cytotoxicity ([6]; 100 nM) was 16.7 ± 5.1% and the Percentage cytotoxicity ([6]; 1 μM) was 10.5 ± 6.5%.
